4 compounds from BindingDB's records for doi:10.1021/jm500801r (Southern Research Institute, 2014) can be followed below.

The structures appear in SMILES notation.

What is called IC50 is the point on the concentration scale where inhibition reaches its midpoint.

This experiment in a line: Antagonist activity against human D3R expressed in CHO cells assessed as inhibition of quinpirole-induced mitogenesis after 16 hrs by [3H]thymidine uptake assay.
Turning to `O=C(NCCCCN1CCN(c2cccc(Cl)c2Cl)CC1)c1cn2ccccc2n1`, the IC50 is 7.2 nM.

Consider `CC(C)(C)c1nc(N2CCN(CCCCNC(=O)c3nc4ccccc4[nH]3)CC2)cc(C(F)(F)F)n1`, for which the half-inhibitory concentration (IC50) worked out at 208 nM.

Consider `COc1ccccc1N1CCN(CCCCNC(=O)c2cn3ccccc3n2)CC1`, for which the IC50 came to 3 nM.

For the compound `O=C(NCCCCN1CCN(c2ncnc3ccccc23)CC1)c1cn2ccccc2n1`, the IC50 was 940 nM.
